In PMC6208485, “Discovery of the first macrolide antibiotic binding protein in Mycobacterium tuberculosis: a new antibiotic resistance drug target” (Protein & Cell, 2018):

target: MABP-1 (Rv3197) (Mycobacterium tuberculosis, UniProt O53343)
Sequence (O53343 entry or part of it): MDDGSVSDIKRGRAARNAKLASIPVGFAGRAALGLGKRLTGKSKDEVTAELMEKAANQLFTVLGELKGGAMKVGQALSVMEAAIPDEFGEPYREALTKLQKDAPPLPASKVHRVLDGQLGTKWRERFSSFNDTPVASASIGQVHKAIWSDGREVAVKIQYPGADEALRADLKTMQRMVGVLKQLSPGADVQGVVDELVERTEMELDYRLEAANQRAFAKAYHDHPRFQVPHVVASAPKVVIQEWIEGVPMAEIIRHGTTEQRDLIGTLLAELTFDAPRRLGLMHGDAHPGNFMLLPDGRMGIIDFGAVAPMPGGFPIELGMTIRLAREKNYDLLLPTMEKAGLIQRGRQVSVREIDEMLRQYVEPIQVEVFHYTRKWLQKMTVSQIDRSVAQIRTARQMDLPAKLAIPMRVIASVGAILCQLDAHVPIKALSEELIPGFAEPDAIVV

SMILES | crystal structure of the complex
Nc1ncnc2c1ncn2[C@@H]1O[C@H](COP(=O)(O)OP(=O)(O)O)[C@@H](O)[C@H]1O [ADP] | crystal structures of MABP-1 in complex with AMPPNP and with ADP, were determined
Nc1ncnc2c1ncn2[C@@H]1O[C@H](COP(=O)(O)OP(=O)(O)NP(=O)(O)O)[C@@H](O)[C@H]1O [AMPPNP] | crystal structures of MABP-1 in complex with AMPPNP and with ADP, were determined
CC[C@H]1OC(=O)[C@H](C)[C@@H](O[C@H]2C[C@@](C)(OC)[C@@H](O)[C@H](C)O2)[C@H](C)[C@@H](O[C@@H]2O[C@H](C)C[C@H](N(C)C)[C@H]2O)[C@](C)(O)C[C@@H](C)C(=O)[C@H](C)[C@@H](O)[C@]1(C)O [erythromycin] | The electron density for erythromycin was unequivocal revealing it is located in a shallow pocket
